Molecular target: T1, Arginase-1 (Homo sapiens, UniProt P05089)
T1 sequence (P05089 whole entry): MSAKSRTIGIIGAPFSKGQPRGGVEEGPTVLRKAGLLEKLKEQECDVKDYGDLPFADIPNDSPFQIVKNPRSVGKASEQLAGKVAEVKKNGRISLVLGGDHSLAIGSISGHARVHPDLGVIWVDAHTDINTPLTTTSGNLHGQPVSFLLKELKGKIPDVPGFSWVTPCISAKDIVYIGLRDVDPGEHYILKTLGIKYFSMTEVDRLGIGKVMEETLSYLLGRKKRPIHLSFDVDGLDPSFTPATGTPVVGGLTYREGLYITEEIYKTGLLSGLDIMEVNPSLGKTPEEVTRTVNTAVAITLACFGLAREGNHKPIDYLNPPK
Assay: Inhibition of human recombinant arginase 1 expressed in Escherichia coli using thioarginine by Ellman's assay

IC50: 30 nM
SMILES: N[C@H]1CCN[C@@](CCCCB(O)O)(C(=O)O)C1

From ChEMBL document CHEMBL4665911, “Novel Arginase Inhibitors for Treating Cancer and Respiratory Inflammatory Diseases” (ACS Med Chem Lett, 2020)
